# Laboratory results as given in patent US6355631B1, “Pharmaceutical compositions containing azetidine derivatives, novel azetidine derivatives and their preparation” (Aventis Pharma S.A., priority 2000, dated 2002).
row,SMILES,melting point
1,"O=[SH](=O)N(Cc1ccccc1)CC1CN(C(c2ccc(Cl)cc2)c2ccc(Cl)cc2)C1 [Example 23, N-Benzyl-N-{1-[bis(4-chlorophenyl)methyl]azetidin-3-yl}methylsulfonamide]",171 °C
2,"O=[SH](=O)N(Cc1cc(F)cc(F)c1)C1CN(C(c2ccc(F)cc2)c2ccc(F)cc2)C1 [Example 34, N-{1-[Bis(4-fluorophenyl)methyl]azetidin-3-yl}-N-(3,5-difluorophenyl)methylsulfonamide]",98 °C
